We go through one molecule from patent US20190022088A1 (RedHill Biopharma Ltd., priority 2017, published 2019).

Data set [1] deals with T1, Human Trypsin-3 (Homo sapiens, UniProt P35030).
T1 sequence (P35030 81-304 limits assumed): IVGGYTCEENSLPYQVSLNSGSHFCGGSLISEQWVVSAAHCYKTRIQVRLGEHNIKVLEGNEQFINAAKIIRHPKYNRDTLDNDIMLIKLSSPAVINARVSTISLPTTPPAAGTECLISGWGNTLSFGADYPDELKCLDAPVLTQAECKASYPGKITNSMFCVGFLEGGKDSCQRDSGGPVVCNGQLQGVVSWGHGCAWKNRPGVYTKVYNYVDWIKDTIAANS
The experiment in a line: Ki of WX-UK1, chromogenic substrate cleavage. The data set is classed as biochemical. The conditions noted are these: 37° C., 0.5% BSA, pH=7.4, read-out: Ki (μM) Mean ± SD (n).

Data set [2] has as its target T2, trypsin-2 (Homo sapiens, UniProt P07478). The experiment in a line: Ki of WX-UK1, chromogenic substrate cleavage. The data set is classed as biochemical. Conditions: 37° C., 0.5% BSA, pH=7.4, read-out: Ki (μM) Mean ± SD (n).
Data set [3] addresses Human Trypsin-1 (Homo sapiens, UniProt P07477). The experiment in a line: Ki of WX-UK1, chromogenic substrate cleavage. The conditions noted are these: 37° C., 0.5% BSA, pH=7.4, read-out: Ki (μM) Mean ± SD (n). Format: biochemical.
Data set [4] concerns the target Human Tryptase-. The experiment in a line: Ki of WX-UK1, chromogenic substrate cleavage. The data set is classed as biochemical. Conditions: Human Tryptase- (isoform character is an image); 37° C., 0.5% BSA, pH=7.4; read-out: Ki (μM) Mean ± SD (n). The procedure:
(§1) Samples of the selected proteases were prepared and characterized biochemically with respect to inhibitory constant (Ki) of inhibition by WX-UK1-1 and affinity (Kd) of the interaction.
Substrate concentrations were kept high in order to stay around 10% turnover per run.

Data set [5] concerns the target T2, trypsin-2. The experiment in a line: Drug-binding kinetic studies. The procedure: as §1
Data set [6] in a line: Solubility. The data set is classed as physicochemical.
Data set [7] concerns the target urokinase type plasminogen activator (uPA) (Homo sapiens, UniProt P00749). The conditions noted are these: previously shown; cited from earlier work.
In data set [8] the target is plasmin (Homo sapiens, UniProt P00747). Conditions: previously shown; cited from earlier work.
Chain of plasmin (P00747 581-810 limits assumed, species assumed): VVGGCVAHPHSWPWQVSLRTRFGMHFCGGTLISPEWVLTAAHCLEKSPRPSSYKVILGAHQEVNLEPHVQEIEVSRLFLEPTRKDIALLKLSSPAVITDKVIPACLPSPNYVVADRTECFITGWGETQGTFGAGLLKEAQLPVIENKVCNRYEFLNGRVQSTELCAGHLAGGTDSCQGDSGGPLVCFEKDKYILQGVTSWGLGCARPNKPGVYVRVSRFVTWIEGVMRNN
Chain of plasmin (P00747 97-580 partner limits assumed, species assumed): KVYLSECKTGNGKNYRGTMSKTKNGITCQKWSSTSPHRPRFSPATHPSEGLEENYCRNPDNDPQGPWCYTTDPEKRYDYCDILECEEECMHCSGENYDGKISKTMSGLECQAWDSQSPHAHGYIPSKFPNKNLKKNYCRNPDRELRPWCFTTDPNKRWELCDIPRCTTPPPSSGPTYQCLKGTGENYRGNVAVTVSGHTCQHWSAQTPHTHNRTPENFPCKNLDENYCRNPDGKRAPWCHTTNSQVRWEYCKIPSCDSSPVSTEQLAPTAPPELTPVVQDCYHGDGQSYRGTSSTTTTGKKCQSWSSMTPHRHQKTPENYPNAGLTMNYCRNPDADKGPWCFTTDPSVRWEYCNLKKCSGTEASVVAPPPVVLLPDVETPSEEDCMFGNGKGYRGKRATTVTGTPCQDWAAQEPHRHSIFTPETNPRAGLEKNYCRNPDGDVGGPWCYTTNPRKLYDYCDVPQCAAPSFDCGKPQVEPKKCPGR
In data set [9] the test system is implanted tumors. Conditions: parenterally administered; cited from earlier work.

T2 sequence (P07478 24-247): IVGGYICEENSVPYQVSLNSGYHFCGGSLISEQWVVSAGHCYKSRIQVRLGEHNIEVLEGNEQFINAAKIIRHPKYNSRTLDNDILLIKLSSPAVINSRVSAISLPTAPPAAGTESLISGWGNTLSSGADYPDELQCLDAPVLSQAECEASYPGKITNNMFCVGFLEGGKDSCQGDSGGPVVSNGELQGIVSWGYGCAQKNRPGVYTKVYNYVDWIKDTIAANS

Regarding `CCOC(=O)N1CCN(C(=O)C(Cc2cccc(C(=N)N)c2)NS(=O)(=O)c2c(C(C)C)cc(C(C)C)cc2C(C)C)CC1` (stereo not drawn) [WX-UK1, N-α-(2,4,6-triisopropylphenylsulfonyl)-3-amidino-(L)-phenylalanine 4-ethoxycarbonylpiperazide], the Ki in data set [1] is ~0.019 µM; in data set [2] it was ~0.075 µM; in [3] it was ~0.19 µM; in [4], 11 ± 2 µM; in data set [7] it was 650 to 900 nM; in data set [8] it was 1460 to 2400 nM. Besides, in data set [5], the “rate of association with trypsin-2 compared with uPA” value is “faster”. Also, in data set [5], the “rate of dissociation from trypsin-2 compared with uPA” value is recorded as “slower”. For the same molecule, the solubility in water entry in [6] is recorded as “poor solubility”. For the same molecule, the “growth rate of implanted tumors” value in data set [9] is listed as “reduce the growth rate of implanted tumors”. For the same molecule, the “invasion into nearby lymph nodes and spreading to distant target organs of metastasis” value in data set [9] was “inhibit their invasion into nearby lymph nodes and their spreading to distant target organs of metastasis”.
